Tested on: HaCaT cells
Assay: Promoting cell adhesion test (MTT after three-dimensional force)
Type: cell-based, human
Details: 12.5, 25, 50, 100 ppm coated plate, vs normal control group
Description: Human keratinocytes (HaCaT) were purchased from the Kunming Cell Bank of the Type Culture Collection Committee of the Chinese Academy of Sciences.
Dissolve with PBS solution.
The cryopreserved HaCaT human cuticle cells were cultured, subcultured at a ratio of 1:2 to about 5 passages, and the cells with better growth were selected as the experimental objects.
The sample to be tested was added to a 96-well plate at a rate of 20 μL/well, and dried overnight in a constant temperature oven at 37° C. […] Set the detection wavelength to 490 nm, the reference wavelength to 630 nm, and use a microplate reader to read the OD value.
By selecting HaCaT cells, plate them in a drug-coated 96-well plate, and after incubation and a period of three-dimensional force, the cells with strong adhesion can be maintained on the 96-well plate. By performing MTT quantitative analysis on the live cells on the plate, that is, the effect of the drug on cell adhesion can be evaluated to determine whether the peptide of the present invention can improve cell elasticity. After three-dimensional force action, the more living cells remained on the 96-well plate, the greater the measured OD value, indicating the stronger the adhesion of the cells.

Question: With “H-Ala-Pro-Phe-Arg-Met-Gly-Ile-Met-Thr-Thr-Asn-OH (H-APFRMGIMTTN-OH) [Peptide (2)]” as the substance, how does the “adhesion ability of HaCaT cells” value read?
Answer: could improve the adhesion ability of HaCaT cells
